Patent US20130274838A1, “OPTICAL CONTROL OF CARDIAC FUNCTION” (The Research Foundation of State University of New York, priority 2010, published 2013)

Experiments:
[1] = tested on: cell pairs of adult canine ventricular myocytes and HEK-ChR2 (gap junctional coupling); assay: Carbenoxolone uncoupling of tandem cell units, dual patch clamp with optical pacing; assay type: cell-based; settings: 200 μM carbenoxolone perfusion, light-triggered action potentials before, during and after washout (FIG. 5f)
Description: Dual patch clamp experiments were performed within 48 hours after plating. Briefly, experiments were carried out on heterologous (HEK-ChR2— canine myocyte) cell pairs within 48 hours after plating, as described previously. A dual whole-cell voltage-clamp method was used to control and record the membrane potential of both cells and to measure associated membrane and junctional currents. Each cell of a pair was voltage clamped at the same potential by two separate patch clamp amplifiers (Axopatch 200, Axon Instruments). To record junctional conductance, brief voltage steps (±10 mV, 400 ms) were applied to one cell of a pair, whereas the other cell was held at constant voltage and the junctional currents were recorded from the unstepped cell. Membrane and action potentials were recorded in current-clamp mode. For electrical recordings, glass coverslips with adherent cells were transferred to an experimental chamber mounted on the stage of an inverted microscope (Olympus-IX71) equipped with a fluorescence imaging system. […] When filled, the resistance of the pipettes measured 1-4MΩ. […] Contractility movies were recorded in response to optical pacing before and during administration of carbenoxolone, and upon washout to assess the role of gap junctional coupling in the functionality of the tandem cell unit.

[2] = tested on: cardiac syncytium of neonatal rat cardiomyocytes and HEK-ChR2 (gap junctional coupling); assay: Carbenoxolone uncoupling in cardiac syncytium, contractility under optical pacing; assay type: cell-based; settings: 200 μM carbenoxolone for 20 min without perfusion, contractility in response to optical pacing
Description: Carbenoxolone, CBX, (Sigma), a gap junctional uncoupler, was used at a concentration 200 μM in the dual-patch experiments with canine cardiomyocytes and HEK-ChR2 or in the cardiac syncytium of neonatal rat cardiomyocytes and HEK-ChR2. In the latter case, CBX was applied for 20 min (without perfusion) in the co-cultures of HEK-ChR2 cells and cardiomyocytes. Contractility movies were recorded in response to optical pacing before and during administration of carbenoxolone, and upon washout to assess the role of gap junctional coupling in the functionality of the tandem cell unit. Microscopic imaging for confirmation of gene expression or for documenting contractions by optical excitation was done with the Olympus FluoView™ FV1000 confocal system at room temperature. An EMCCD camera (ImagEM EMCCD camera from Hamamatsu, Bridgewater, N.J.) attached to the Olympus FluoView™ FV1000 microscope was used to record contractility movies at 20 fps with 60× oil lens (NA=1.42) using SlideBook 5 software (Intelligent Imaging Innovations, Denver, Colo.). In addition, contractility response was also documented by automatic optical tracking of cell length at 250 Hz using an IonOptix videosystem (IonOptix) attached to a Nikon TE2000 inverted microscope.

CC1(C)[C@@H](OC(=O)CCC(=O)O)CC[C@]2(C)[C@H]3C(=O)C=C4[C@@H]5C[C@@](C)(C(=O)O)CC[C@]5(C)CC[C@@]4(C)[C@]3(C)CC[C@@H]12 [cabenoxolone, carbenoxolone]
effect of pharmacological uncoupling on light-sensitivity of the myocytes in the TCUs [1]: abolished the light-sensitivity of the myocytes in the TCUs | effect of pharmacological uncoupling on light-sensitivity of the myocytes in the TCUs [2]: abolished the light-sensitivity of the myocytes in the TCUs
